Experimental data taken from the supplement of paper PMC10307832.

Key:
Experiment in all cases: relative viability (nuclei count vs DMSO), 5 days (fraction); higher = more cells survive
NCI-H1792 = system: NCI-H1792
Outline: (§1)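 Medians of duplicate plates are given as relative viability. That measure is the nuclei count in treated wells divided by the count in vehicle wells. Counts were taken on 4× images of lung cancer cell lines in 1536-well plates, 5 days after pin-tool dosing the day after seeding with one drug alone or a fixed anchor-drug dose plus five library-drug doses (not always all listed) in √10 steps.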

NCI-H1993 = system: NCI-H1993
Outline: as §1

HCC-15 = system: HCC-15
Outline: as §1

NCI-H838 = system: NCI-H838
Outline: as §1

NCI-H358 = system: NCI-H358
Outline: as §1

COR-L23 = system: COR-L23
Outline: as §1

NCI-H647 = system: NCI-H647
Outline: as §1

NCI-H1395 = system: NCI-H1395
Outline: as §1

NCI-H1734 = system: NCI-H1734
Outline: as §1

NCI-H2009 = system: NCI-H2009
Outline: as §1

NCI-H1755 = system: NCI-H1755
Outline: as §1

NCI-H1793 = system: NCI-H1793
Outline: as §1

UMC-11 = system: UMC-11
Outline: as §1

HOP-62 = system: HOP-62
Outline: as §1

NCI-H522 = system: NCI-H522
Outline: as §1

NCI-H2170 = system: NCI-H2170
Outline: as §1

COR-L 105 = system: COR-L 105
Outline: as §1

NCI-H1355 = system: NCI-H1355
Outline: as §1

SK-MES-1 = system: SK-MES-1
Outline: as §1

NCI-H2228 = system: NCI-H2228
Outline: as §1

NCI-H2347 = system: NCI-H2347
Outline: as §1

HARA = system: HARA
Outline: as §1

`CCN(CC)CCCCNc1ncc2cc(-c3cc(OC)cc(OC)c3)c(NC(=O)NC(C)(C)C)nc2n1` + Nc1nc2[nH]cc(CCc3ccc(C(=O)N[C@@H](CCC(=O)O)C(=O)O)cc3)c2c(=O)[nH]1 [Pemetrexed] (partner 0.2 µM) was tested, and the relative viability (NCI-H1792; first compound 0.01 µM) was 1.17, the relative viability (NCI-H1792; first compound 0.03162 µM) was 0.932 and the relative viability (NCI-H1792; first compound 0.1 µM) was 0.634. It also gave a relative viability (NCI-H1792; first compound 0.3162 µM) of 0.945, a relative viability (NCI-H1792; first compound 1 µM) of 0.296 and a relative viability (NCI-H1993; first compound 0.01 µM) of 0.57. For the same compound, the relative viability (NCI-H1993; first compound 0.03162 µM) was 0.583, the relative viability (NCI-H1993; first compound 0.1 µM) was 0.652 and the relative viability (NCI-H1993; first compound 0.3162 µM) was 0.689. The relative viability (NCI-H1993; first compound 1 µM) was 0.707, the relative viability (HCC-15; first compound 0.01 µM) was 0.21 and the relative viability (HCC-15; first compound 0.03162 µM) was 0.237. It also gave a relative viability (HCC-15; first compound 0.1 µM) of 0.206, a relative viability (HCC-15; first compound 0.3162 µM) of 0.209 and a relative viability (HCC-15; first compound 1 µM) of 0.207. The relative viability (NCI-H838; first compound 0.01 µM) was 0.242, the relative viability (NCI-H838; first compound 0.03162 µM) was 0.245 and the relative viability (NCI-H838; first compound 0.1 µM) was 0.225. The relative viability (NCI-H838; first compound 0.3162 µM) was 0.234, the relative viability (NCI-H838; first compound 1 µM) was 0.224 and the relative viability (NCI-H358; first compound 0.01 µM) was 0.163. For the same compound, the relative viability (NCI-H358; first compound 0.03162 µM) was 0.169, the relative viability (NCI-H358; first compound 0.1 µM) was 0.16 and the relative viability (NCI-H358; first compound 0.3162 µM) was 0.216. For the same compound, the relative viability (NCI-H358; first compound 1 µM) was 0.167, the relative viability (COR-L23; first compound 0.01 µM) was 0.208 and the relative viability (COR-L23; first compound 0.03162 µM) was 0.188. For the same compound, the relative viability (COR-L23; first compound 0.1 µM) was 0.192, the relative viability (COR-L23; first compound 0.3162 µM) was 0.196 and the relative viability (COR-L23; first compound 1 µM) was 0.192. The relative viability (NCI-H647; first compound 0.01 µM) was 0.188, the relative viability (NCI-H647; first compound 0.03162 µM) was 0.127 and the relative viability (NCI-H647; first compound 0.1 µM) was 0.157. It also gave a relative viability (NCI-H647; first compound 0.3162 µM) of 0.161, a relative viability (NCI-H647; first compound 1 µM) of 0.136 and a relative viability (NCI-H1395; first compound 0.01 µM) of 0.898. For the same compound, the relative viability (NCI-H1395; first compound 0.03162 µM) was 0.787, the relative viability (NCI-H1395; first compound 0.1 µM) was 0.955 and the relative viability (NCI-H1395; first compound 0.3162 µM) was 1.06. It also gave a relative viability (NCI-H1395; first compound 1 µM) of 0.607, a relative viability (NCI-H1734; first compound 0.01 µM) of 0.405 and a relative viability (NCI-H1734; first compound 0.03162 µM) of 0.387. For the same compound, the relative viability (NCI-H1734; first compound 0.1 µM) was 0.418, the relative viability (NCI-H1734; first compound 0.3162 µM) was 0.409 and the relative viability (NCI-H1734; first compound 1 µM) was 0.384. The relative viability (NCI-H2009; first compound 0.01 µM) was 1.12, the relative viability (NCI-H2009; first compound 0.03162 µM) was 1.03 and the relative viability (NCI-H2009; first compound 0.1 µM) was 1.08. The relative viability (NCI-H2009; first compound 0.3162 µM) was 1.18, the relative viability (NCI-H2009; first compound 1 µM) was 0.988 and the relative viability (NCI-H1755; first compound 0.01 µM) was 0.413. For the same compound, the relative viability (NCI-H1755; first compound 0.03162 µM) was 0.572, the relative viability (NCI-H1755; first compound 0.1 µM) was 0.356 and the relative viability (NCI-H1755; first compound 0.3162 µM) was 0.448. The relative viability (NCI-H1755; first compound 1 µM) was 0.435, the relative viability (NCI-H1793; first compound 0.01 µM) was 0.88 and the relative viability (NCI-H1793; first compound 0.03162 µM) was 0.815. The relative viability (NCI-H1793; first compound 0.1 µM) was 0.988, the relative viability (NCI-H1793; first compound 0.3162 µM) was 0.949 and the relative viability (NCI-H1793; first compound 1 µM) was 0.548. The relative viability (UMC-11; first compound 0.01 µM) was 0.862, the relative viability (UMC-11; first compound 0.03162 µM) was 0.767 and the relative viability (UMC-11; first compound 0.1 µM) was 0.969. It also gave a relative viability (UMC-11; first compound 0.3162 µM) of 0.986, a relative viability (UMC-11; first compound 1 µM) of 0.696 and a relative viability (HOP-62; first compound 0.01 µM) of 0.33. The relative viability (HOP-62; first compound 0.03162 µM) was 0.275, the relative viability (HOP-62; first compound 0.1 µM) was 0.362 and the relative viability (HOP-62; first compound 0.3162 µM) was 0.314. It also gave a relative viability (HOP-62; first compound 1 µM) of 0.351, a relative viability (NCI-H522; first compound 0.01 µM) of 0.989 and a relative viability (NCI-H522; first compound 0.03162 µM) of 0.918. The relative viability (NCI-H522; first compound 0.1 µM) was 1.09, the relative viability (NCI-H522; first compound 0.3162 µM) was 0.888 and the relative viability (NCI-H522; first compound 1 µM) was 0.921. For the same compound, the relative viability (NCI-H2170; first compound 0.01 µM) was 0.251, the relative viability (NCI-H2170; first compound 0.03162 µM) was 0.293 and the relative viability (NCI-H2170; first compound 0.1 µM) was 0.262. For the same compound, the relative viability (NCI-H2170; first compound 0.3162 µM) was 0.238, the relative viability (NCI-H2170; first compound 1 µM) was 0.275 and the relative viability (COR-L 105; first compound 0.01 µM) was 1.23. For the same compound, the relative viability (COR-L 105; first compound 0.03162 µM) was 1.12, the relative viability (COR-L 105; first compound 0.1 µM) was 1.18 and the relative viability (COR-L 105; first compound 0.3162 µM) was 1.47. For the same compound, the relative viability (COR-L 105; first compound 1 µM) was 1.05, the relative viability (NCI-H1355; first compound 0.01 µM) was 1.06 and the relative viability (NCI-H1355; first compound 0.03162 µM) was 1.09. For the same compound, the relative viability (NCI-H1355; first compound 0.1 µM) was 1.17, the relative viability (NCI-H1355; first compound 0.3162 µM) was 1.11 and the relative viability (NCI-H1355; first compound 1 µM) was 1.02. For the same compound, the relative viability (SK-MES-1; first compound 0.01 µM) was 1.11, the relative viability (SK-MES-1; first compound 0.03162 µM) was 0.94 and the relative viability (SK-MES-1; first compound 0.1 µM) was 1.05. The relative viability (SK-MES-1; first compound 0.3162 µM) was 1.07, the relative viability (SK-MES-1; first compound 1 µM) was 0.98 and the relative viability (NCI-H2228; first compound 0.01 µM) was 0.318. The relative viability (NCI-H2228; first compound 0.03162 µM) was 0.344, the relative viability (NCI-H2228; first compound 0.1 µM) was 0.418 and the relative viability (NCI-H2228; first compound 0.3162 µM) was 0.326. For the same compound, the relative viability (NCI-H2228; first compound 1 µM) was 0.335, the relative viability (NCI-H2347; first compound 0.01 µM) was 0.419 and the relative viability (NCI-H2347; first compound 0.03162 µM) was 0.555. It also gave a relative viability (NCI-H2347; first compound 0.1 µM) of 0.423, a relative viability (NCI-H2347; first compound 0.3162 µM) of 0.412 and a relative viability (NCI-H2347; first compound 1 µM) of 0.382. It also gave a relative viability (HARA; first compound 0.01 µM) of 0.202, a relative viability (HARA; first compound 0.03162 µM) of 0.234 and a relative viability (HARA; first compound 0.1 µM) of 0.279. For the same compound, the relative viability (HARA; first compound 0.3162 µM) was 0.22 and the relative viability (HARA; first compound 1 µM) was 0.281.
